Reference: patent US8629171B2, “Crystalline form of methyl ((1S)-1-((25)-2-(5-(4'-(2-((25)-1((2S)-2-((methoxycarbonyl)amino)-3-methylbutanoyl)-2-pyrrolidinyl)-1H-imidazol-2-yl)-1-pyrrolidinyl)carbonyl)-2-methylpropyl)carbamate dihydrochloride salt” (Bristol-Myers Squibb Company, priority 2007, dated 2014)
Structures can show the parent of a compound that is named as a salt.

Test: aqueous solubility
Assay type: physicochemical
Settings: crystalline Form N-2 of the dihydrochloride salt

aqueous solubility: high
Compound: COC(=O)N[C@H](C(=O)N1CCC[C@H]1c1nc(-c2ccc(-c3ccc(-c4c[nH]c([C@@H]5CCCN5C(=O)[C@@H](NC(=O)OC)C(C)C)n4)cc3)cc2)c[nH]1)C(C)C [Compound (I), methyl ((1S)-1-(((2S)-2-(5-(4′-(2-((2S)-1-((2S)-2-((methoxycarbonyl)amino)-3-methylbutanoyl-2-pyrrolidinyl)-1H-imidazol-5-yl)-4-biphenylyl)-1H-imidazol-2-yl)-1-pyrrolidinyl)carbonyl)-2-methylpropyl)carbamatedihydrochloride salt]
